Test results from the NIST ThermoML archive (doi:10.1021/acs.jced.8b00966).
± gives the expanded uncertainty stated by the source. One block for each molecule: values may come before it.

Details: Liquid, Ebulliometric method (Recirculating still)

vapor or sublimation pressure (352.8 K): 101.3 ± 3 kPa
Compound: CC1(C)COC1 [3,3-dimethyloxetane]

vapor or sublimation pressure (373.35 K): 101.3 ± 3 kPa
Compound: CC1CCCCC1 [methylcyclohexane]

vapor or sublimation pressure (439.15 K): 101.3 ± 3 kPa
Compound: CC(C)(CO)CCl [3-chloro-2,2-dimethyl-1-propanol]
